Laboratory results from EP3570868B1, “[…] ANTIMICROBIAL PEPTIDES AND THEIR APPLICATIONS FOR THE TREATMENT AND PREVENTION OF MUSCU[…]” (Ustav Organicke Chemie a Biochemie AV CR, v.v.i., priority 2017, dated 2018).
Square brackets hold non-standard residues; d marks the D form. Peptide text beside a SMILES is read from it. βAla = NCCC(=O)O

Assays:
human red blood cells = test: Determination of haemolytic activity; assay type: cell-based; conditions: human red blood cells (5% v/v), 1 h at 37 °C; concentration for lysis of 50% of erythrocytes
Description: The peptides in the concentrations 2-400 µmol.1^-1 were incubated with the suspension of human red blood cells (5% v/v) for 1 h at 37 °C in a physiological solution at a final volume of 0.2 ml. The samples were then centrifuged for 5 min at 250 g. The absorbance of the supernatant was determined at 540 nm. 0.2% (v/v) TRITON X100 was used as a control for 100% haemolysis. Haemolytic activity is expressed as the peptide concentration required for lysis of 50% of human erythrocytes in the assay (LC50). Table 2. Antimicrobial and haemolytic activity of I up to XIII peptides and tetracycline.

[1] = system: MRSA (clin. isolate Liberec); assay type: cell-based, Staphylococcus aureus; conditions: 37° C for 20 h
Description: (§1) Gram-positive bacteria (Bacillus subtilis, Staphylococcus aureus, Staphylococcus epidermidis and Enterococcus faecalis), Gram-negative bacteria (Escherichia coli and Pseudomonas aeruginosa) and the yeast (Candida albicans) were grown to exponential phase and then were diluted with fresh medium. BHI medium (Oxoid, Great Britain) was used for Enterococcus faecalis; YPD medium containing yeast extract, peptone and glucose was used for Candida albicans and LB medium (Sigma, Czech Republic) was used for the remaining microorganisms. Then the microorganisms were added to the solutions of the tested antimicrobial peptides in LB medium in multi-well plates, so that the final peptide concentration it the wells was in the range of 0.5 to 100 µmοl.1^-1. The plates were incubated at 37° C for 20 h while being continuously shaken in a Bioscreen C (Oy Growth Curves AB Ltd., Helsinki, Finland). Absorbance was measured at 540 nm every 15 min. Antimicrobial activity (Table 2) was determined as a quantitative minimum inhibitory concentration (MIC) by observing bacterial growth in the presence of different concentrations of tested peptides. In the experiments, ca 10^5 CFU of bacteria or candida per well were used. Tetracycline in a concentration range of 0.5 - 100 µmol.1^-1 was used as a standard.
(§2) Clinical isolates of bacteria were obtained from University Hospital in Motol, Prague, Czech Republic and from Liberec Regional Hospital, Czech Republic. Methicillin resistant Staphylococcus aureus (MRSA) 6271 and Pseudomonas aeruginosa 5482 were from the Czech National Collection of Type Cultures, the National Institute of Public Health, Prague, Czech Republic. Other bacteria were from the Czech Collection of Microorganisms, Brno, Czech Republic. Candida albicans came from the Faculty of Medicine, Palacky University, Olomouc, Czech Republic. Candida tropicalis ATCC 750 and Candida glabrata DSY 565 were obtained from the Institute of Physiology, Academy of Sciences of the Czech Republic.

MRSA 6271 = assay type: cell-based, Staphylococcus aureus; conditions: 37° C for 20 h
Description: as §1, §2

[2] = system: MRSA (clin. isolate Motol); assay type: cell-based, Staphylococcus aureus; conditions: 37° C for 20 h
Description: as §1, §2

[3] = system: E.f. (clin. isolate Motol); assay type: cell-based, Enterococcus faecalis; conditions: 37° C for 20 h
Description: as §1, §2

Candida albicans = assay type: cell-based; conditions: C.a.; 37° C for 20 h
Description: as §1, §2

Escherichia coli = assay type: cell-based; conditions: E.c.; 37° C for 20 h
Description: as §1, §2

Bacillus subtilis = assay type: cell-based; conditions: B.s.; 37° C for 20 h
Description: as §1, §2

[4] = system: P.a. (clin. isolate Liberec); assay type: cell-based, Pseudomonas aeruginosa; conditions: 37° C for 20 h
Description: as §1, §2

P.a. 5482 = assay type: cell-based, Pseudomonas aeruginosa; conditions: 37° C for 20 h
Description: as §1, §2

[5] = system: S.e. (clin. isolate Motol); assay type: cell-based, Staphylococcus epidermidis; conditions: 37° C for 20 h
Description: as §1, §2

| SMILES | Hemolytic activity LC50 (human red blood cells) | Antimicrobial activity MIC [1] | Antimicrobial activity MIC (MRSA 6271) | Antimicrobial activity MIC [2] | Antimicrobial activity MIC [3] | Antimicrobial activity MIC (Candida albicans) | Antimicrobial activity MIC (Escherichia coli) | Antimicrobial activity MIC (Bacillus subtilis) | Antimicrobial activity MIC [4] | Antimicrobial activity MIC (P.a. 5482) | Antimicrobial activity MIC [5] |
| --- | --- | --- | --- | --- | --- | --- | --- | --- | --- | --- | --- |
| CC[C@@H](C)[C@@H](NC(=O)[C@@H](CCCCN)NC(=O)[C@@H](CCCCN)NC(=O)[C@@H](CC(C)C)NC(=O)[C@@H](CC(C)C)NC(=O)[C@@H](CCCCN)NC(=O)[C@@H](CCSC)NC(=O)[C@@H](Cc1c[nH]c2ccccc12)NC(=O)[C@@H](CCCCN)NC(=O)CCN)C(=O)N[C@H](CC(C)C)C(=O)N[C@H](CCCCN)C(N)=O [Peptide VI] (H-[βAla][dK][dW][dM][dK][dL][dL][dK][dK][dI][dL][dK]-NH2) | >400 µM | – | – | – | – | – | – | – | – | – | – |
| CC[C@H](C)[C@H](NC(=O)[C@H](CCCCN)NC(=O)[C@H](CCCCN)NC(=O)[C@H](CC(C)C)NC(=O)[C@H](CC(C)C)NC(=O)[C@H](CCCCN)NC(=O)[C@H](CCCCN)NC(=O)[C@H](Cc1c[nH]c2ccccc12)NC(=O)[C@H](CCCCN)NC(=O)CN)C(=O)N[C@@H](CC(C)C)C(=O)N[C@@H](CCCCN)C(N)=O [X] (H-GKWKKLLKKILK-NH2) | >400 µM | 11,5 µmol.l^-1 | 29,7 µmol.l^-1 | 25,3 µmol.l^-1 | >100 µmol/L | 9,5 µmol.l^-1 | 11,5 µmol.l^-1 | 2,4 µmol.l^-1 | 9,5 µmol.l^-1 | 2,9 µmol.l^-1 | 4,7 µmol.l^-1 |
| CC[C@@H](C)[C@@H](NC(=O)[C@@H](CCCCN)NC(=O)[C@@H](CCCCN)NC(=O)[C@@H](CC(C)C)NC(=O)[C@@H](CC(C)C)NC(=O)[C@@H](CCCCN)NC(=O)[C@@H](CCSC)NC(=O)[C@@H](Cc1c[nH]c2ccccc12)NC(=O)[C@@H](CCCCN)NC(=O)CN)C(=O)N[C@H](CC(C)C)C(=O)N[C@H](CCCCN)C(N)=O [IV] | >400 µM | 5,3 µmol.l^-1 | 11,3 µmol.l^-1 | 9,7 µmol.l^-1 | 12,7 µmol.l^-1 | 5,7 µmol.l^-1 | 3,0 µmol.l^-1 | 1,4 µmol.l^-1 | 12,5 µmol.l^-1 | 4,5 µmol.l^-1 | 2,0 µmol.l^-1 |
